Assay results as given in US10947252B2, “Inhibitors of KEAP1-Nrf2 protein-protein interaction” (Janssen Pharmaceutica NV, priority 2018, dated 2021).

Assays:
[1] = molecular target: Kelch domain of human KEAP1 (321-624 aa) (Homo sapiens (Human), UniProt Q14145); test: KEAP1 KELCH ThermoFluor binding assay; conditions: KEAP Kelch […], 1,8-ANS, pH 7.0, average of results obtained, read-out: Tf Kd;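 note: Ligand-induced melting temperature shift of E. coli-expressed KEAP1 Kelch protein, Kd estimated from concentration-response curves of ΔTm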
Chain of Kelch domain of human KEAP1 (321-624 aa) (Q14145 321-624): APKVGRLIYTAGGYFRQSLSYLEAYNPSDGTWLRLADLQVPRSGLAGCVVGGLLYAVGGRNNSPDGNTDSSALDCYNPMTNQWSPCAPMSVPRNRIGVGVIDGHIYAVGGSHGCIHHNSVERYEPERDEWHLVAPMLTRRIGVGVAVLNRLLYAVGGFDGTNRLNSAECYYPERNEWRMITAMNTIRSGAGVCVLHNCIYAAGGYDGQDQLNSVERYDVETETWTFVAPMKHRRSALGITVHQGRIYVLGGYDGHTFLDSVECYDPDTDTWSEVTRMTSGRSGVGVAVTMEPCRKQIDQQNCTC

[2] = system: Glo-Response ARE-luc2P HEK293 cell line; test: ARE luciferase reporter cell-based assay; conditions: Homo sapiens, HEK293, 24 h, average of results obtained;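 note: luciferase signal tracks Nrf2 activation of the ARE once compounds disrupt KEAP1-Nrf2 binding, read with One-Glo reagent, DMSO serving as low control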

Kd [1] [µM] | SMILES | EC50 [2] [µM]
< 0.001 | Cc1ccc([C@H](CC(=O)O)c2ccn3c(C(F)(F)F)nnc3c2C)cc1CN1CC2(CC2)Oc2nc(NCCN3CCCCC3)ccc2S1(=O)=O (single isomer, unassigned) [Example 112, (*S)-3-(3-((1′,1′-Dioxido-7′-((2-(piperidin-1-yl)ethyl)amino)spiro[cyclopropane-1,4′-pyrido[2,3-b][1,4,5]oxathiazepin]-2′(3′H)-yl)methyl)-4-methylphenyl)-3-(8-methyl-3-(trifluoromethyl)-[1,2,4[triazolo[4,3-a]pyridine-7-yl)propanoic Acid] | 1.31
< 0.001 | Cc1ccc([C@@H](c2ccn3c(C(F)(F)F)nnc3c2C)C(C)(C)C(=O)O)cc1CN1CC2(CCOCC2)Oc2nc(N[C@H](C)CCO)ccc2S1(=O)=O (single isomer, unassigned) [Example 119, (*S)-3-(3-((7′-(((R)-4-Hydroxybutan-2-yl)amino)-1′,1′-dioxido-2,3,5,6-tetrahydrospiro[pyran-4,4′-pyrido[2,3-b][1,4,5]oxathiazepin]-2′(3′H)-yl)methyl)-4-methylphenyl)-2,2-dimethyl-3-(8-methyl-3-(trifluoromethyl)-[1,2,4[triazolo[4,3-a]pyridine-7-yl)propanoic Acid] | 0.166
8.56 | Cc1ccc([C@H](c2ccn3c(C(F)(F)F)nnc3c2C)C(C)(C)C(=O)O)cc1CN1CC2(CCOCC2)Oc2nc(N[C@H](C)CCO)ccc2S1(=O)=O (single isomer, unassigned) [Example 120, (*R)-3-(3-((7′-(((R)-4-Hydroxybutan-2-yl)amino)-1′,1′-dioxido-2,3,5,6-tetrahydrospiro[pyran-4,4′-pyrido[2,3-b][1,4,5]oxathiazepin]-2′(3′H)-yl)methyl)-4-methylphenyl)-2,2-dimethyl-3-(8-methyl-3-(trifluoromethyl)-[1,2,4[triazolo[4,3-a]pyridine-7-yl)propanoic Acid] | 19.4
< 0.001 | Cc1ccc([C@@H](c2ccn3c(C(F)(F)F)nnc3c2C)C(C)(C)C(=O)O)cc1CN1CC2(CCOCC2)Oc2nc(N[C@@H](C)CCO)ccc2S1(=O)=O (single isomer, unassigned) [Example 121, (*S)-3-(3-((7′-(((S)-4-Hydroxybutan-2-yl)amino)-1′,1′-dioxido-2,3,5,6-tetrahydrospiro[pyran-4,4′-pyrido[2,3-b][1,4,5]oxathiazepin]-2′(3′H)-yl)methyl)-4-methylphenyl)-2,2-dimethyl-3-(8-methyl-3-(trifluoromethyl)-[1,2,4[triazolo[4,3-a]pyridine-7-yl)propanoic Acid] | 0.157
8.93 | Cc1ccc([C@H](c2ccn3c(C(F)(F)F)nnc3c2C)C(C)(C)C(=O)O)cc1CN1CC2(CCOCC2)Oc2nc(N[C@@H](C)CCO)ccc2S1(=O)=O (single isomer, unassigned) [Example 122, (*R)-3-(3-((7′-(((S)-4-Hydroxybutan-2-yl)amino)-1′,1′-dioxido-2,3,5,6-tetrahydrospiro[pyran-4,4′-pyrido[2,3-b][1,4,5]oxathiazepin]-2′(3′H)-yl)methyl)-4-methylphenyl)-2,2-dimethyl-3-(8-methyl-3-(trifluoromethyl)-[1,2,4[triazolo[4,3-a]pyridine-7-yl)propanoic Acid] | 13
< 0.001 | Cc1ccc([C@H](c2ccn3c(C(F)(F)F)nnc3c2C)C(C)(C)C(=O)O)cc1CN1CC2(CCOCC2)Oc2nc(N[C@@H](C)CCO)c(C)cc2S1(=O)=O (single isomer, unassigned) [Example 123, (*R)-3-(3-((7′-(((S)-4-Hydroxybutan-2-yl)amino)-8′-methyl-1′,1′-dioxido-2,3,5,6-tetrahydrospiro[pyran-4,4′-pyrido[2,3-b][1,4,5]oxathiazepin]-2′(3′H)-yl)methyl)-4-methylphenyl)-2,2-dimethyl-3-(8-methyl-3-(trifluoromethyl)-[1,2,4[triazolo[4,3-a]pyridine-7-yl)propanoic Acid] | 0.0289
< 0.001 | Cc1ccc([C@H](c2ccn3c(C(F)(F)F)nnc3c2C)C(C)(C)C(=O)O)cc1CN1CC2(CCOCC2)Oc2nc(N[C@H](C)C(C)(C)O)c(C)cc2S1(=O)=O (single isomer, unassigned) [Example 124, (*R)-3-(3-((7′-(((R)-3-Hydroxy-3-methylbutan-2-yl)amino)-8′-methyl-1′,1′-dioxido-2,3,5,6-tetrahydrospiro[pyran-4,4′-pyrido[2,3-b][1,4,5]oxathiazepin]-2′(3′H)-yl)methyl)-4-methylphenyl)-2,2-dimethyl-3-(8-methyl-3-(trifluoromethyl)-[1,2,4]triazolo[4,3-a]pyridin-7-yl)propanoic Acid] | 0.0288
< 0.001 | Cc1ccc([C@@H](c2ccn3c(C(F)(F)F)nnc3c2C)C(C)(C)C(=O)O)cc1CN1CC2(CCOCC2)Oc2nc(OCCN3CCCCC3)c(C)cc2S1(=O)=O (single isomer, unassigned) [Example 126, 2,2-Dimethyl-3-(4-methyl-3-((8′-methyl-1′,1′-dioxido3-(3-((7′-(((*S)-4-hydroxybutan-2-yl)amino)-8′-methyl-1′,1′-dioxido-7′-(2-(piperidin-1-yl)ethoxy)-2,3,5,6-tetrahydrospiro[pyran-4,4′-pyrido[2,3-b][1,4,5]oxathiazepin]-2′(3′H)-yl)methyl)phenyl)-3-(8-methyl-3-(trifluoromethyl)-[1,2,4]triazolo[4,3-a]pyridine-7-yl)propanoic Acid] | 0.006
< 0.001 | Cc1ccc([C@H](c2ccn3c(C(F)(F)F)nnc3c2C)C(C)(C)C(=O)O)cc1CN1CC2(CCOCC2)Oc2nc(CCC(=O)NCCO)ccc2S1(=O)=O (single isomer, unassigned) [Example 128, (*R)-3-(3-((7′-(3-((2-Hydroxyethyl)amino)-3-oxopropyl)-1′,1′-dioxido-2,3,5,6-tetrahydrospiro[pyran-4,4′-pyrido[2,3-b][1,4,5]oxathiazepin]-2′(3′H)-yl)methyl)-4-methylphenyl)-2,2-dimethyl-3-(8-methyl-3-(trifluoromethyl)-[1,2,4]triazolo[4,3-a]pyridine-7-yl)propanoic Acid] | 0.308

More lines, now with the values behind:

SMILES | Kd [1] [µM] | EC50 [2] [µM]
CCn1nnc2c(C)c([C@@H](CC(=O)O)c3ccc(C)c(CN4C[C@@H]5CCCN5c5ncccc5S4(=O)=O)c3)ccc21 (single isomer, unassigned) [Example 156, (*S)-3-(3-(((S)-5,5-Dioxido-7a,8,9,10-tetrahydropyrido[2,3-f]pyrrolo[2,1-d][1,2,5]thiadiazepin-6(7H)-yl)methyl)-4-methylphenyl)-3-(1-ethyl-4-methyl-1H-benzo[d][1,2,3]triazol-5-yl)propanoic Acid] | 0.0021 | 0.0036
CCn1nnc2c(C)c([C@H](CC(=O)O)c3ccc(C)c(CN4C[C@@H]5CCCN5c5ncccc5S4(=O)=O)c3)ccc21 (single isomer, unassigned) [Example 157, (*R)-3-(3-(((S)-5,5-Dioxido-7a,8,9,10-tetrahydropyrido[2,3-f]pyrrolo[2,1-d][1,2,5]thiadiazepin-6(7H)-yl)methyl)-4-methylphenyl)-3-(1-ethyl-4-methyl-1H-benzo[d][1,2,3]triazol-5-yl)propanoic Acid] | ~0.0032 | 0.062
Cc1ccc([C@H](CC(=O)O)c2ccn3c(C)nnc3c2)cc1CN1C[C@H]2CCCN2c2ncccc2S1(=O)=O (single isomer, unassigned) [Example 163, (*S)-3-(3-(((R)-5,5-Dioxido-7a,8,9,10-tetrahydropyrido[2,3-f]pyrrolo[2,1-d][1,2,5]thiadiazepin-6(7H)-yl)methyl)-4-methylphenyl)-3-(3-methyl-[1,2,4]triazolo[4,3-a]pyridin-7-yl)propanoic Acid] | < 0.001 | 2.75
Cc1ccc([C@@H](CC(=O)O)c2ccn3c(C)nnc3c2)cc1CN1C[C@H]2CCCN2c2ncccc2S1(=O)=O (single isomer, unassigned) [Example 164, (*R)-3-(3-(((R)-5,5-Dioxido-7a,8,9,10-tetrahydropyrido[2,3-f]pyrrolo[2,1-d][1,2,5]thiadiazepin-6(7H)-yl)methyl)-4-methylphenyl)-3-(3-methyl-[1,2,4]triazolo[4,3-a]pyridin-7-yl)propanoic Acid] | 0.0023 | 11.2
Cc1ccc([C@H](CC(=O)O)c2ccn3c(C)nnc3c2)cc1CN1C[C@H]2CCCN2c2ccccc2S1(=O)=O (single isomer, unassigned) [Example 165, (*S)-3-(3-(((R)-5,5-Dioxido-7a,8,9,10-tetrahydrobenzo[f]pyrrolo[2,1-d][1,2,5]thiadiazepin-6(7H)-yl)methyl)-4-methylphenyl)-3-(3-methyl-[1,2,4]triazolo[4,3-a]pyridin-7-yl)propanoic Acid] | < 0.001 | 1.49
Cc1ccc([C@@H](CC(=O)O)c2ccn3c(C)nnc3c2)cc1CN1C[C@H]2CCCN2c2ccccc2S1(=O)=O (single isomer, unassigned) [Example 166, (*R)-3-(3-(((R)-5,5-Dioxido-7a,8,9,10-tetrahydrobenzo[f]pyrrolo[2,1-d][1,2,5]thiadiazepin-6(7H)-yl)methyl)-4-methylphenyl)-3-(3-methyl-[1,2,4]triazolo[4,3-a]pyridin-7-yl)propanoic Acid] | < 0.001 | 7.02
Cc1ccc([C@H](CC(=O)O)c2ccn3c(C4CC4)nnc3c2C)cc1CN1C[C@H]2CCCN2c2ncccc2S1(=O)=O (single isomer, unassigned) [Example 168, (*S)-3-(3-Cyclopropyl-8-methyl-[1,2,4]triazolo[4,3-a]pyridin-7-yl)-3-(3-(((R)-5,5-dioxido-7a,8,9,10-tetrahydropyrido[2,3-f]pyrrolo[2,1-d][1,2,5]thiadiazepin-6(7H)-yl)methyl)-4-methylphenyl)propanoic Acid] | < 0.001 | 0.48
